For experiment [1], the target named is polyhemoglobin-tyrosinase complex (bovine hemoglobin crosslinked with mushroom tyrosinase) (Bos taurus, UniProt P01966+P02070). To be noted: crosslink time 24 h; versus pure bovine hemoglobin in free form.
For experiment [2], the system named is tyrosinase from mushroom, free (1020 U/3 ml). In words: Vmax and Km of free tyrosinase. Type of experiment: biochemical. The settings on record: substrate tyrosine. An excerpt:
(§1) L-tyrosine (98% TLC), hemoglobin from bovine (lyophilized powder), hemoglobin assay kit, tyrosinase from mushroom (3400 U/mg manufacturer's stated activity) were purchased from Sigma-Aldrich (Oakville, Canada). Collodion was obtained from Fisher Scientific (Nepean, Canada). Glutaraldehyde (25%) was obtained from Polyscienes (Warrington, Pa.). Purified bovine hemoglobin was purchased from Biopure Corporation (Boston, Mass.). All other reagents were of analytical grade.
This is to characterize the enzyme kinetics of the preparation and comparing this encapsulated tyrosinse preparation to free tyrosinase.

In experiment [3] the test system is tyrosinase from mushroom, encapsulated (1020 U/3 ml). Briefly: Apparent Vmax and apparent Km of encapsulated tyrosinase. Type of experiment: biochemical. The settings on record: substrate tyrosine.
Description: as §1
One gram hemoglobin and 200 mg […] was dissolved in 10 ml double distilled deionized water. Stir with a metal rod until everything is dissolved. Gravity filter the solution through a Waterman #42 filter into a Erlenmeyer flask. Take 2.5 ml of this 10 g/dl hemoglobin solution and was encapsulated within spherical, ultrathin, cellulose nitrate membrane. Without tyrosinase loaded microcapsules were administrated orally to control group. For tyrosinase loaded microencapsules, […] of 3400 U/mg tyrosinase was dissolved in 2.5 ml 10% hemoglobin solution, then followed the methods described above to immobilize tyrosinase in collodion membrane microcapsules. Microcapsules prepared as a 50% suspension for later feeding. […]
Next, the apparent Vmax and apparent Km value for encapsulated tyrosinase (1020 U/3 ml) were studied. The leakage of encapsulated tyrosinase is also measured.

Here are results for 2 molecules from patent publication US20030219491A1, “Compositions for inhibiting tumor growth and methods thereof” (priority 2002, published 2003).

Sequence of polyhemoglobin-tyrosinase complex (bovine hemoglobin crosslinked with mushroom tyrosinase) (P01966 whole entry): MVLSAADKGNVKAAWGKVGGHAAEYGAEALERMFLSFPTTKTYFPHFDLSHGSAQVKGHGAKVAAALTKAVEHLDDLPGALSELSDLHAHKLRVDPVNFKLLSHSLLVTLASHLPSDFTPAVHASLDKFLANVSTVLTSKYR
Sequence of polyhemoglobin-tyrosinase complex (bovine hemoglobin crosslinked with mushroom tyrosinase) (P02070 whole entry): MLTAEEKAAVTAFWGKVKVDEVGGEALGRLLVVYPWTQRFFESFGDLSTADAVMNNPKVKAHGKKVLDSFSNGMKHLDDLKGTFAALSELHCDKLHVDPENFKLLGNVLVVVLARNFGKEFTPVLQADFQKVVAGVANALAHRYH

As for `O=O` [oxygen], the “P50 (oxygen dissociation), difference from free hemoglobin” value in experiment [1] is on record as “no significant difference”.
Take `N[C@@H](Cc1ccc(O)cc1)C(=O)O` [tyrosine, L-tyrosine]: in experiment [2], the Vmax turned out to be 114.94 mg/dl · min. In experiment [3], the “Apparent Vmax” value stood at 49.02 mg/dl · min and the Km worked out at 465 µM.
